The text below walks through data of ChEMBL document CHEMBL3132769, “Fragment growing to retain or alter the selectivity of anchored kinase hinge-binding fragments” (Medchemcomm, 2014).

The target of assay [1] is Tyrosine-protein kinase ABL2 (Homo sapiens) (UniProt P42684). The assay is described as follows: Inhibition of human truncated Arg expressed in baculovirus assessed as substrate phosphorylation using fluorescence-labelled peptides as substrate at 0.2 uM after 90 mins by microfluidic peptide phosphorylation assay.
In assay [2] the target is T1, Protein kinase C zeta type (Homo sapiens) (UniProt Q05513).
T1 sequence (whole entry): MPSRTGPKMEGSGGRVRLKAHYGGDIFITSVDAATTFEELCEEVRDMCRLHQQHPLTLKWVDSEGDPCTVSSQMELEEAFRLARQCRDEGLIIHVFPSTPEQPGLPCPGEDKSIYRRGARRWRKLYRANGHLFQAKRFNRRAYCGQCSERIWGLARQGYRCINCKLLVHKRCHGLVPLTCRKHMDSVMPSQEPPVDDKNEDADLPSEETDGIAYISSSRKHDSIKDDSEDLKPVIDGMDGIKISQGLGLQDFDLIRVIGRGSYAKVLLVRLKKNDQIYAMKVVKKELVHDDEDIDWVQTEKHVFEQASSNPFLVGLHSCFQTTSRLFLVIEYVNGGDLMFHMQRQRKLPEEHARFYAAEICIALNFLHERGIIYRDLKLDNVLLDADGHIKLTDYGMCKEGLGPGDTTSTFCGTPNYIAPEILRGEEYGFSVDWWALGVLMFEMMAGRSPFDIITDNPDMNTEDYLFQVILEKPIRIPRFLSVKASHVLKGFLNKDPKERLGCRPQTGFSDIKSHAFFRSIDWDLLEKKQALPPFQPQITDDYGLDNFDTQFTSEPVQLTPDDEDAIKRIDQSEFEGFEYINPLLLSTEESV
Nature of the assay: Inhibition of human full length PKC zeta expressed in baculovirus assessed as substrate phosphorylation using fluorescence-labelled peptides as substrate at 0.2 uM after 90 mins by microfluidic peptide phosphorylation assay.

The target in assay [3] is Proto-oncogene tyrosine-protein kinase Src (Homo sapiens) (UniProt P12931). Nature of the assay: Inhibition of human full length SRC expressed in baculovirus assessed as substrate phosphorylation using fluorescence-labelled peptides as substrate at 0.2 uM after 90 mins by microfluidic peptide phosphorylation assay.
The target of assay [4] is T2, Serine/threonine-protein kinase D2 (Homo sapiens) (UniProt Q9BZL6).
T2 sequence (whole entry): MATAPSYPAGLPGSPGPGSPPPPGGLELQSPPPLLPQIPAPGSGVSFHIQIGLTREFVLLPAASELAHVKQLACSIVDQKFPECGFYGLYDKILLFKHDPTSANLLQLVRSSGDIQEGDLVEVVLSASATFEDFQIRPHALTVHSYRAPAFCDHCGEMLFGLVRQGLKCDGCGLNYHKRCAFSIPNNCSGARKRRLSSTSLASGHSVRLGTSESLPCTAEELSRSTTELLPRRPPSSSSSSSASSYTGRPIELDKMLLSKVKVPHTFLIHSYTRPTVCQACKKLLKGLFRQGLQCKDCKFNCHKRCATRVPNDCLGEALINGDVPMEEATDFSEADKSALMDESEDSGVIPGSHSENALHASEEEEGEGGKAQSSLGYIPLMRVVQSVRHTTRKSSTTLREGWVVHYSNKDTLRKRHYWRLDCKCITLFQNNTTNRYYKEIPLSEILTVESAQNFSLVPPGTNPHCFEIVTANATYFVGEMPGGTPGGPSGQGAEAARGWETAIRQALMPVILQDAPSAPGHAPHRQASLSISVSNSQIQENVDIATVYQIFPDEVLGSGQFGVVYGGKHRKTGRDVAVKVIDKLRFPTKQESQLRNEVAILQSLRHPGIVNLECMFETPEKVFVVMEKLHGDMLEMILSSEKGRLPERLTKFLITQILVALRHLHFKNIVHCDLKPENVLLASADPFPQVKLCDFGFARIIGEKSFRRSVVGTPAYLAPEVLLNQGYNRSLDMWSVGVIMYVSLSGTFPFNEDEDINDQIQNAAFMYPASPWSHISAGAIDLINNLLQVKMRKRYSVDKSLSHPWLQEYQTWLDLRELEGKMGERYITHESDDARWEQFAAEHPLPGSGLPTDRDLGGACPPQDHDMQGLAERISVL
Nature of the assay: Inhibition of human full length PKD2 expressed in baculovirus assessed as substrate phosphorylation using fluorescence-labelled peptides as substrate at 95 uM after 90 mins by microfluidic peptide phosphorylation assay.

Assay [5] deals with Insulin receptor (Homo sapiens) (UniProt P06213). Nature of the assay: Inhibition of human INSR catalytic domain expressed in baculovirus assessed as substrate phosphorylation using fluorescence-labelled peptides as substrate at 8 uM after 90 mins by microfluidic peptide phosphorylation assay.
Assay [6] concerns the target MAP kinase p38 (Homo sapiens) (UniProt O15264+Q15759+Q16539+P53778). Nature of the assay: Inhibition of human full length p38 beta2 expressed in Escherichia coli cell assessed as substrate phosphorylation using fluorescence-labelled peptides as substrate at 8 uM after 90 mins by microfluidic peptide phosphorylation assay.
Assay [7] deals with RAF proto-oncogene serine/threonine-protein kinase (Homo sapiens) (UniProt P04049). Nature of the assay: Inhibition of human truncated c-Raf expressed in baculovirus assessed as substrate phosphorylation using fluorescence-labelled peptides as substrate at […] after 90 mins by microfluidic peptide phosphorylation assay.
For assay [8], the target named is T3, Calcium/calmodulin-dependent protein kinase type IV (Homo sapiens) (UniProt Q16566).
T3 sequence (whole entry): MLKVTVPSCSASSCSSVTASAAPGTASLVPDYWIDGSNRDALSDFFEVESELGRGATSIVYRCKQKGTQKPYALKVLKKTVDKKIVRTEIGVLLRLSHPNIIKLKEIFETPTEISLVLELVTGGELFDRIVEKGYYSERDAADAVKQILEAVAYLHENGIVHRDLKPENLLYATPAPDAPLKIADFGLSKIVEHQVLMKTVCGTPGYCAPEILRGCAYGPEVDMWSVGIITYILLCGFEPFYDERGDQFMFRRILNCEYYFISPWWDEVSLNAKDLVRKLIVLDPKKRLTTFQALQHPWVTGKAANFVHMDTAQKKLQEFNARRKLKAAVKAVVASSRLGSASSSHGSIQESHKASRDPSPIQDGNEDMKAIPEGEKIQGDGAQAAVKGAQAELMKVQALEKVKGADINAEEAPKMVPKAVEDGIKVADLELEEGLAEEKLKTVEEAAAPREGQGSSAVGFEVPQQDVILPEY
The assay is described as follows: Inhibition of human full length CAMK4 expressed in baculovirus assessed as substrate phosphorylation using fluorescence-labelled peptides as substrate at 420 uM after 90 mins by microfluidic peptide phosphorylation assay.

Assay [9] deals with Protein kinase C eta type (Homo sapiens) (UniProt P24723). The assay is described as follows: Inhibition of human truncated PKC eta expressed in baculovirus assessed as substrate phosphorylation using fluorescence-labelled peptides as substrate at 1000 uM after 90 mins by microfluidic peptide phosphorylation assay.

The structures appear in SMILES notation.

Chain of Proto-oncogene tyrosine-protein kinase Src (Homo sapiens) (P12931 2-536 limits assumed): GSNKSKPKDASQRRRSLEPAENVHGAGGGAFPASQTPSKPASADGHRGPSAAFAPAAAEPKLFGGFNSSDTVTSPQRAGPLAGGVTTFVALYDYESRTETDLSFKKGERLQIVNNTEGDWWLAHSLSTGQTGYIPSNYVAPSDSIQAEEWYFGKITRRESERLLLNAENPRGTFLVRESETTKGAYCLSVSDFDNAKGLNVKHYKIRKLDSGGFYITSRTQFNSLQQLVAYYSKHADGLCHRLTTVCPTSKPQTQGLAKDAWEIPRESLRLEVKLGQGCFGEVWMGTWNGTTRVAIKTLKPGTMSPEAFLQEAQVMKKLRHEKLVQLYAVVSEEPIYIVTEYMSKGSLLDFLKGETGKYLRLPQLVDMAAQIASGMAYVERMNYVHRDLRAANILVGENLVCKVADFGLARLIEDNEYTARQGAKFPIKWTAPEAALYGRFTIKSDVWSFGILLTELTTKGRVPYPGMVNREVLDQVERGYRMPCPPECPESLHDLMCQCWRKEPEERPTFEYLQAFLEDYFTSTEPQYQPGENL
Chain of Tyrosine-protein kinase ABL2 (Homo sapiens) (P42684 whole entry, the tested form may be a part): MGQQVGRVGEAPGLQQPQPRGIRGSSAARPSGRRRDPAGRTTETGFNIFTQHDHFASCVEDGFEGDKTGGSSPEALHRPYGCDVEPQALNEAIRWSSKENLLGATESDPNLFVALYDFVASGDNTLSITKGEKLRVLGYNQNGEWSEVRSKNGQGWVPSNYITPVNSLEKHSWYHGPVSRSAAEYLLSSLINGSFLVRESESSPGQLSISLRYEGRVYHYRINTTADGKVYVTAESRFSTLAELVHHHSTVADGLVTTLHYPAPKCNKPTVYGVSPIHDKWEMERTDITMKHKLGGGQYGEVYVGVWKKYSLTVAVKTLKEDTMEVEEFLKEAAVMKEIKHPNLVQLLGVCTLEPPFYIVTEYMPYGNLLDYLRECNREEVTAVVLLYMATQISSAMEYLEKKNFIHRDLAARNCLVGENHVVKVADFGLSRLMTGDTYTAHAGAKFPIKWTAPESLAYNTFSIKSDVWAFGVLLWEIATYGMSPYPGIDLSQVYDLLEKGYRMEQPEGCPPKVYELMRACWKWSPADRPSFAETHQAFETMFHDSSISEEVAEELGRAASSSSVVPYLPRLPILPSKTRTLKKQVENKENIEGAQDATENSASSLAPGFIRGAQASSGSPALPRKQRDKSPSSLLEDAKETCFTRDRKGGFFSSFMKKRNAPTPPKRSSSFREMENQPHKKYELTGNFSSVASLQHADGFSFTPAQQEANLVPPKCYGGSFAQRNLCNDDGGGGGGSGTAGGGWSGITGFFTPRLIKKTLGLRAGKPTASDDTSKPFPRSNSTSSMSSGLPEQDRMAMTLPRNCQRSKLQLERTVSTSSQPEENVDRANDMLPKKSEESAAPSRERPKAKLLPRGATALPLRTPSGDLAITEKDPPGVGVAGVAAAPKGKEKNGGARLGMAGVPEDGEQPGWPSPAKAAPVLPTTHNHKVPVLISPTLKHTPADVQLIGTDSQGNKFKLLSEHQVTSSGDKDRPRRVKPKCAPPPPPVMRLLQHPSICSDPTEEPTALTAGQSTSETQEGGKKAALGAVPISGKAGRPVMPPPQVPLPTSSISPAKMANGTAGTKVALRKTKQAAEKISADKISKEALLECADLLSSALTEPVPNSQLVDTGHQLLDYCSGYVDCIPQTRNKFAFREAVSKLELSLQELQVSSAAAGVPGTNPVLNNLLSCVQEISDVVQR
Chain of Protein kinase C eta type (Homo sapiens) (P24723 whole entry, the tested form may be a part): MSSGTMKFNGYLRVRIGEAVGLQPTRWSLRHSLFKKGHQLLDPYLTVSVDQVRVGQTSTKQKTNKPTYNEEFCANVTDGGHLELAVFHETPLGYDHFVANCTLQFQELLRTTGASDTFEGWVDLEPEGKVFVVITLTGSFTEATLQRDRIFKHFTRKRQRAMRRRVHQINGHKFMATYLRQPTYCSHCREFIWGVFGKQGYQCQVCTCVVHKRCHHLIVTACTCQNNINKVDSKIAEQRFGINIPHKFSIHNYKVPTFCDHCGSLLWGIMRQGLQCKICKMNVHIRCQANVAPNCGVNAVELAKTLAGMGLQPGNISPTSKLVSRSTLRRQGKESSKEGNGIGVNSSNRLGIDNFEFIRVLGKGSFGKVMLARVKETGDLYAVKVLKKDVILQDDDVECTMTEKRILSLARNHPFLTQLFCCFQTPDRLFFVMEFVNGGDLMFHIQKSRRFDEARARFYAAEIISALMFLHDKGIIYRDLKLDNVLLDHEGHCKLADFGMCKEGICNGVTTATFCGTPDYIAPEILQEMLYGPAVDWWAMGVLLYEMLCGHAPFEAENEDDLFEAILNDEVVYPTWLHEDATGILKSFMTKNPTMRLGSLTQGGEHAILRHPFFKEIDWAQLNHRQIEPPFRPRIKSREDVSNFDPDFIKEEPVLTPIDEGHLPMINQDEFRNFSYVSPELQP
Chain of RAF proto-oncogene serine/threonine-protein kinase (Homo sapiens) (P04049 whole entry, the tested form may be a part): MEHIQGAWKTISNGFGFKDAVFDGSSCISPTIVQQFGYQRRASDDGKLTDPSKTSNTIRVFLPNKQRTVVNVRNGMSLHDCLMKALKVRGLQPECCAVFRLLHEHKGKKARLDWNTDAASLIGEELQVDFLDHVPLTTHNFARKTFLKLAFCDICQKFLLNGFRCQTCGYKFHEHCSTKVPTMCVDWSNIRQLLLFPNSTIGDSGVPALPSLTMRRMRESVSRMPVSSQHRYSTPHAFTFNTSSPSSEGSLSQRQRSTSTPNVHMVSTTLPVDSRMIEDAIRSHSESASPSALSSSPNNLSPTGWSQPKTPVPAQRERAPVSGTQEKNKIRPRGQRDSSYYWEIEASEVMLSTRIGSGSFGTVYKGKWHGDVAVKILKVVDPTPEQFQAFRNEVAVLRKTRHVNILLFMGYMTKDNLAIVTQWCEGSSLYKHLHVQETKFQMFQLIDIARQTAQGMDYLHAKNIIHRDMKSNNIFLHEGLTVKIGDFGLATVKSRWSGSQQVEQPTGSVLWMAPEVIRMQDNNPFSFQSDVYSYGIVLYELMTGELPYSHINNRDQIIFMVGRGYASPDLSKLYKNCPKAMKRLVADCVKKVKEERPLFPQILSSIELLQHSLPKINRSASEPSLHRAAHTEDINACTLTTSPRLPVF

What is called inhibition is how much of the control response was suppressed. Turning to `Clc1ccc(C2(c3ccc(-c4ncnc5[nH]cnc45)cc3)CCNCC2)cc1`, the inhibition in assay [1] stood at 4.5%; in [2], 1%; in [3], 24.5%. For `NCCc1ccc(-c2ncnc3[nH]cnc23)cc1`, the inhibition in assay [4] was 77.5%.

With `NCC1CCN(c2ncnc3[nH]ccc23)CC1`, the figures for the inhibition in assay [5] and in assay [6] were 16.5% and 12.5%, respectively. `COC(=O)c1cnc(Nc2cnc(C#N)cn2)cc1NCC1CCNCC1`: the inhibition in [7] was 7%. Consider `c1nc(N2CCOCC2)c2nc[nH]c2n1`, for which the inhibition in assay [8] stood at 62%. As for `c1cnc2[nH]ccc2c1`, in assay [9], the inhibition is 52%.
